Measurements reported in the supplement of paper PMC10307832.

Columns and labels:
Assay in all cases: relative viability (nuclei count vs DMSO), 5 days (fraction); higher = more cells survive
[1] = tested on: PC-14
Method in brief: (§1)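 Nuclei were stained with Hoechst during a one-step fixation (final 0.05% Triton X-100, 1% formaldehyde, 1 ug/ml Hoechst) carried out 5 days after dosing, then counted on 4× images. The cells, lung cancer lines in 1536-well plates, had been dosed by pin tool the day after seeding with one drug alone or a fixed anchor-drug dose plus five library-drug doses (not always all listed) in √10 steps. Relative viability is the nuclei count in treated wells divided by that in vehicle wells, and each value is the median of duplicate plates.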

[2] = tested on: SK-MES-1
Method in brief: as §1

[3] = tested on: NCI-H1915
Method in brief: as §1

[4] = tested on: NCI-H2347
Method in brief: as §1

[5] = tested on: NCI-H661
Method in brief: as §1

[6] = tested on: NCI-H520
Method in brief: as §1

[7] = tested on: NCI-H727
Method in brief: as §1

[8] = tested on: NCI-H3122
Method in brief: as §1

[9] = tested on: LXF-289
Method in brief: as §1

[10] = tested on: NCI-H1563
Method in brief: as §1

[11] = tested on: NCI-H1755
Method in brief: as §1

[12] = tested on: LCLC-103H
Method in brief: as §1

[13] = tested on: NCI-H441
Method in brief: as §1

[14] = tested on: NCI-H596
Method in brief: as §1

[15] = tested on: NCI-H650
Method in brief: as §1

[16] = tested on: RERF-LC-KJ
Method in brief: as §1

[17] = tested on: NCI-H322M
Method in brief: as §1

[18] = tested on: NCI-H460
Method in brief: as §1

[19] = tested on: NCI-H1792
Method in brief: as §1

[20] = tested on: NCI-H1651
Method in brief: as §1

[21] = tested on: NCI-H2170
Method in brief: as §1

[22] = tested on: NCI-H1355
Method in brief: as §1

O=C(O)c1ccc(-c2c[nH]c3ncc(-c4ccccc4)cc23)cc1C1CCCC1 + C[C@@H](Oc1cc(-c2cnn(C3CCNCC3)c2)cnc1N)c1c(Cl)ccc(F)c1Cl [Crizotinib] (partner 1 µM) showed a relative viability ([1]; first compound 0.04 µM) of 0.931, a relative viability ([1]; first compound 0.1265 µM) of 0.849 and a relative viability ([1]; first compound 0.4 µM) of 0.921. It also gave a relative viability ([1]; first compound 1.265 µM) of 0.672, a relative viability ([2]; first compound 0.04 µM) of 0.942 and a relative viability ([2]; first compound 0.1265 µM) of 1.01. The relative viability ([2]; first compound 0.4 µM) was 0.953, the relative viability ([2]; first compound 1.265 µM) was 0.774 and the relative viability ([3]; first compound 0.04 µM) was 0.96. It also gave a relative viability ([3]; first compound 0.1265 µM) of 0.898, a relative viability ([3]; first compound 0.4 µM) of 0.67 and a relative viability ([3]; first compound 1.265 µM) of 0.636. It also gave a relative viability ([4]; first compound 0.04 µM) of 0.621, a relative viability ([4]; first compound 0.1265 µM) of 0.707 and a relative viability ([4]; first compound 0.4 µM) of 0.642. For the same molecule, the relative viability ([4]; first compound 1.265 µM) was 0.568, the relative viability ([5]; first compound 0.1265 µM) was 0.963 and the relative viability ([5]; first compound 0.4 µM) was 0.967. For the same molecule, the relative viability ([5]; first compound 1.265 µM) was 1.03, the relative viability ([6]; first compound 0.04 µM) was 0.748 and the relative viability ([6]; first compound 0.1265 µM) was 1.02. The relative viability ([6]; first compound 0.4 µM) was 0.744, the relative viability ([6]; first compound 1.265 µM) was 0.828 and the relative viability ([7]; first compound 0.04 µM) was 0.971. For the same molecule, the relative viability ([7]; first compound 0.1265 µM) was 0.894, the relative viability ([7]; first compound 0.4 µM) was 0.738 and the relative viability ([7]; first compound 1.265 µM) was 0.805. For the same molecule, the relative viability ([8]; first compound 0.04 µM) was 0.261, the relative viability ([8]; first compound 0.1265 µM) was 0.245 and the relative viability ([8]; first compound 0.4 µM) was 0.272. The relative viability ([8]; first compound 1.265 µM) was 0.319, the relative viability ([9]; first compound 0.04 µM) was 0.741 and the relative viability ([9]; first compound 0.1265 µM) was 0.772. It also gave a relative viability ([9]; first compound 0.4 µM) of 0.594, a relative viability ([9]; first compound 1.265 µM) of 0.285 and a relative viability ([10]; first compound 0.04 µM) of 0.787. It also gave a relative viability ([10]; first compound 0.1265 µM) of 0.91, a relative viability ([10]; first compound 0.4 µM) of 0.851 and a relative viability ([10]; first compound 1.265 µM) of 0.875. It also gave a relative viability ([11]; first compound 0.04 µM) of 0.883, a relative viability ([11]; first compound 0.1265 µM) of 0.924 and a relative viability ([11]; first compound 0.4 µM) of 0.897. The relative viability ([11]; first compound 1.265 µM) was 0.839, the relative viability ([12]; first compound 0.04 µM) was 0.997 and the relative viability ([12]; first compound 0.1265 µM) was 1.05. For the same molecule, the relative viability ([12]; first compound 0.4 µM) was 1.03, the relative viability ([12]; first compound 1.265 µM) was 1.04 and the relative viability ([13]; first compound 0.04 µM) was 0.601. For the same molecule, the relative viability ([13]; first compound 0.1265 µM) was 0.907, the relative viability ([13]; first compound 0.4 µM) was 0.689 and the relative viability ([13]; first compound 1.265 µM) was 0.525. The relative viability ([14]; first compound 0.04 µM) was 1, the relative viability ([14]; first compound 0.1265 µM) was 1.09 and the relative viability ([14]; first compound 0.4 µM) was 0.909. For the same molecule, the relative viability ([14]; first compound 1.265 µM) was 1, the relative viability ([15]; first compound 0.04 µM) was 0.762 and the relative viability ([15]; first compound 0.1265 µM) was 0.844. The relative viability ([15]; first compound 0.4 µM) was 0.561, the relative viability ([15]; first compound 1.265 µM) was 0.465 and the relative viability ([16]; first compound 0.04 µM) was 0.795. For the same molecule, the relative viability ([16]; first compound 0.1265 µM) was 0.851, the relative viability ([16]; first compound 0.4 µM) was 0.823 and the relative viability ([16]; first compound 1.265 µM) was 0.766. The relative viability ([17]; first compound 0.04 µM) was 0.943, the relative viability ([17]; first compound 0.1265 µM) was 0.918 and the relative viability ([17]; first compound 0.4 µM) was 1.01. The relative viability ([17]; first compound 1.265 µM) was 0.839, the relative viability ([18]; first compound 0.04 µM) was 0.872 and the relative viability ([18]; first compound 0.1265 µM) was 1.06. For the same molecule, the relative viability ([18]; first compound 0.4 µM) was 0.83, the relative viability ([18]; first compound 1.265 µM) was 0.864 and the relative viability ([19]; first compound 0.04 µM) was 0.959. It also gave a relative viability ([19]; first compound 0.1265 µM) of 0.994, a relative viability ([19]; first compound 0.4 µM) of 1.03 and a relative viability ([19]; first compound 1.265 µM) of 0.891. The relative viability ([20]; first compound 0.04 µM) was 0.852, the relative viability ([20]; first compound 0.1265 µM) was 0.929 and the relative viability ([20]; first compound 0.4 µM) was 0.822. The relative viability ([20]; first compound 1.265 µM) was 0.742, the relative viability ([21]; first compound 0.04 µM) was 1.12 and the relative viability ([21]; first compound 0.1265 µM) was 1.24. The relative viability ([21]; first compound 0.4 µM) was 1.18, the relative viability ([21]; first compound 1.265 µM) was 0.843 and the relative viability ([22]; first compound 0.04 µM) was 1.05. It also gave a relative viability ([22]; first compound 0.1265 µM) of 1.14, a relative viability ([22]; first compound 0.4 µM) of 1.04 and a relative viability ([22]; first compound 1.265 µM) of 0.752.
